Where “and” joins values, the source holds several entries; their conditions need not be identical. Identical values can stand only once.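 Interpolation was linear, between the two tested concentrations surrounding the appropriate level; five concentrations were tested over 48 hours in 96-well plates. The concentration for 50% growth inhibition is given as GI50. TGI: concentration producing complete growth inhibition.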

This is an account of results in PubChem BioAssay (NCI).

Holding throughout (experiment): NCI anticancer screen, dose series, 48 h
In assay [1] the test system is OVCAR-8 ovarian.
In assay [2] the test system is CAKI-1 renal.
Assay [3] relates to ACHN renal.
Assay [4] relates to OVCAR-5 ovarian.
In assay [5] the test system is MALME-3M melanoma.
Assay [6] deals with BT-549 breast.
The test system of assay [7] is MDA-MB-231 breast.
The test system of assay [8] is SK-MEL-2 melanoma.

Consider `COc1ccc(-c2[nH]nc(N)c2-c2cc(OC)c3c(c2)OCO3)cc1`, for which the GI50 in assay [1] is 4.44 µM; in assay [2], 3.98 µM; in assay [3], 6.88 µM; in assay [4], 16 µM; in assay [5], 5.01 µM; in assay [6] it was 7.71 µM. Moreover, the GI50 in assay [7] is 5.5 µM; in assay [8] it was 2.81 µM. The TGI in assay [1], in assay [2], in assay [3], in assay [4], in assay [5] and in assay [6] was more than 100 µM in each case. The TGI was more than 100 µM in assay [7] and 6.42 µM in assay [8].

Regarding `O=C(Nc1cccc(-n2cc(-c3ccncc3)c(-c3ccc(O)c(Cl)c3)n2)c1)c1cc(C(F)(F)F)cc(C(F)(F)F)c1`, the GI50 in assay [1] was 4.88 µM; in assay [2], 2.52 µM; in assay [3], 2.79 µM; in assay [4], 8.33 µM; in assay [5] it was 9.79 µM; in assay [6] it was 4.34 µM. Further, the GI50 in assay [7] was 0.889 µM; in assay [8] it was 9.33 µM. Further, the TGI in assay [1] is more than 50 µM; in assay [2], more than 50 µM; in assay [3] it was more than 50 µM; in assay [4], 37.7 µM; in assay [5], 41.9 µM; in assay [6], 46.6 µM. Besides, the TGI in assay [7] is 2.17 µM; in assay [8], 34 µM.

On to `COc1ccc2nc3cc([N+](=O)[O-])ccc3c(NNc3ccccc3)c2c1`, for which the GI50 is 6.77 µM in assay [1]; 14.4 µM in assay [3]; 14.9 µM in assay [4]; 15.9 µM in assay [6]; 5.69 µM in assay [7]. The TGI in assay [1] is 22.5 µM and > 100 µM; in assay [2], 35.1 µM and > 100 µM; in assay [3], 33.1 µM and > 83.3 µM; in assay [4], 47.2 µM and > 100 µM; in assay [5] it was 43.4 µM; in assay [6] it was 35.7 µM and > 100 µM. For the same molecule, the TGI in assay [7] was 30 µM and 54.2 µM; in assay [8] it was more than 78.9 µM.

As to `C[C@@H](NC(=O)c1ncnc(N)c1Cl)c1ncc(C(=O)Nc2cc(C(F)(F)F)c(Cl)cn2)s1`, the GI50 in assay [1] was 15.1 µM; in assay [2], 25.4 µM; in assay [3], 15.7 µM; in assay [4], 5.88 µM; in assay [5], 0.135 µM; in assay [6], 22.1 µM. For the same molecule, the values for the GI50 in assay [7] and in assay [8] were 5.37 µM and 2.08 µM, respectively. The TGI in assay [1] was 40.8 µM; in assay [2], 71.6 µM; in assay [3] it was more than 100 µM; in assay [4] it was more than 90.5 µM; in assay [5], 0.624 µM; in assay [6] it was 81.2 µM. Besides, the results for the TGI in assay [7] and in assay [8] were 41.5 µM and 8.04 µM, respectively.

As to `NC1=NC(=O)/C(=C/c2ccc3ncccc3c2)S1`, the GI50 was more than 25 µM in assay [1]; more than 25 µM in assay [2]; more than 25 µM in assay [3]; more than 25 µM in assay [4]; more than 25 µM in assay [5]; more than 18.8 µM in assay [6]. In addition, the GI50 in assay [7] is more than 25 µM; in assay [8], more than 20.7 µM. The TGI in assay [1], in assay [2], in assay [3], in assay [4], in assay [5] and in assay [6] was more than 25 µM throughout. Besides, the TGI in assay [7] and in assay [8] was more than 25 µM each time.

On to `Cc1ccc(NC(=O)Nc2c(Cl)cccc2Cl)cn1`, for which the GI50 in assay [1] was 19.4 µM; in assay [2], 5.78 µM; in assay [3], 51.5 µM; in assay [4], 72.9 µM; in assay [5] it was 8.57 µM; in assay [6], 59.1 µM. Moreover, the GI50 in assay [7] is 7.66 µM; in assay [8], 5.87 µM. The TGI in assay [1], in assay [2], in assay [3], in assay [4], in assay [5] and in assay [6] was more than 100 µM in each case. In addition, the TGI in assay [7] was more than 100 µM; in assay [8], 27.5 µM.

Consider `O=c1ccc(=O)n(-c2ccccc2)[nH]1`, for which the TGI in assay [1], in assay [2], in assay [3], in assay [4], in assay [5] and in assay [6] was more than 100 µM throughout. Also, the TGI in assay [7] and in assay [8] was more than 100 µM in each case.

In the case of `C=C1C(=O)O[C@H]2[C@H]1CC/C(Cn1cc(-c3cccc(Cl)c3)nn1)=C\CC[C@@]1(C)O[C@@H]21`, the GI50 in assay [1] was 1.31 µM; in assay [2] it was 0.869 µM; in assay [3], 0.184 µM; in assay [4], 1.21 µM; in assay [5], 1.2 µM; in assay [6], 0.778 µM. In addition, the results for the GI50 in assay [7] and in assay [8] were 1.09 µM and 1.66 µM, respectively. In addition, the TGI was determined as 2.85 µM in assay [1]; 2.13 µM in assay [2]; 0.355 µM in assay [3]; 2.78 µM in assay [4]; 2.92 µM in assay [5]; 2.1 µM in assay [6]. Also, the TGI in assay [7] stood at 2.91 µM; in assay [8] it was 3.28 µM.

As for `COc1ccc2nc(-c3ccccc3)cc(Nc3cccc(C(C)=O)c3)c2c1`, the GI50 in assay [1] is 2.23 µM; in assay [2] it was 12.6 µM; in assay [3], 5.78 µM; in assay [4], 13.1 µM; in assay [5], 12.5 µM; in assay [6], 18.2 µM. Also, the GI50 in assay [7] was 9.65 µM; in assay [8], 38.8 µM. Also, the TGI came to 14.8 µM in assay [1]; 28.2 µM in assay [2]; 22.5 µM in assay [3]; 29.9 µM in assay [4]; 27.7 µM in assay [5]; 40.3 µM in assay [6]. The figures for the TGI in assay [7] and in assay [8] were 28.3 µM and more than 100 µM, respectively.

With `CN(C)Cc1ccc(C(C)(C)C)cc1-c1cc(C(C)(C)C)ccc1CN(C)C`, the TGI is more than 100 µM in assay [1]; more than 100 µM in assay [2]; more than 100 µM in assay [3]; more than 100 µM in assay [4]; 79.6 µM in assay [5]; more than 100 µM in assay [6]. Besides, the TGI in assay [7] and in assay [8] was more than 100 µM in each case.
